Values of other authors as cited in patent US20230404915A1, “RAPIDLY […] COMPOSTIONS AND METHODS (Nicotine)” (ORCOSA INC., priority 2020, published 2023).

Target: nicotinic acetylcholine receptors (nAChRs) (Homo sapiens, UniProt P17787+P43681)
Conditions: peak levels of nicotine after smoking a cigarette; brain α4β2 nAChRs

nicotinic acetylcholine receptors (nAChRs), sequence (P43681 29-627 limits assumed): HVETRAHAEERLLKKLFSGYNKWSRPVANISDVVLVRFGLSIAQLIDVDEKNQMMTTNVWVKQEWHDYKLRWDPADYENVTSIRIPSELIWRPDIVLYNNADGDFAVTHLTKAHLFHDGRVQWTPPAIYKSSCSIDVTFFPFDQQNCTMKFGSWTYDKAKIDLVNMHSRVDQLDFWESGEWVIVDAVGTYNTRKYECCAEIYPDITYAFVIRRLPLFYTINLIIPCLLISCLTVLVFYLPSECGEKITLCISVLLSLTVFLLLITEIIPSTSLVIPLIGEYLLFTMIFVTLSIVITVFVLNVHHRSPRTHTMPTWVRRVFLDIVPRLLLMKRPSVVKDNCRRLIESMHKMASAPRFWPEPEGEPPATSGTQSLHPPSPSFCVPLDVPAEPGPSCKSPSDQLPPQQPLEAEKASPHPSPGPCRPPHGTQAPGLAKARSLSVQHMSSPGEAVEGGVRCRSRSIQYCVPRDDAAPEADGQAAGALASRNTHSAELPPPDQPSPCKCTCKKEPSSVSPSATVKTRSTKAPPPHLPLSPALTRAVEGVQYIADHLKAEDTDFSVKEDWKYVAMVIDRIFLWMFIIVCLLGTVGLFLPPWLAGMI
nicotinic acetylcholine receptors (nAChRs), sequence (P17787 26-502): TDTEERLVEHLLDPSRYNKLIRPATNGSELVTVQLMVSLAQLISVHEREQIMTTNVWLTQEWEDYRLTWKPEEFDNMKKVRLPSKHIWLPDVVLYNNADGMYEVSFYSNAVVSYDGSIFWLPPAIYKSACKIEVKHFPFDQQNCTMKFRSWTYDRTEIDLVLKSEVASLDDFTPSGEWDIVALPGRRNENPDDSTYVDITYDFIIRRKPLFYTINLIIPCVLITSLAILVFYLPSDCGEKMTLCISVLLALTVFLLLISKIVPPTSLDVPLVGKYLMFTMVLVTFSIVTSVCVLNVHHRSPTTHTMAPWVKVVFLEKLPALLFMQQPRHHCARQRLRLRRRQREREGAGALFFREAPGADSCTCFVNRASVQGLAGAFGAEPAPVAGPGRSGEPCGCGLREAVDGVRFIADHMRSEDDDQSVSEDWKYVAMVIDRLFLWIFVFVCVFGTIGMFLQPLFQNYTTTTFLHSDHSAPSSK

For `CN1CCCC1c1cccnc1` (stereo not shown) [nicotine], the “binding to the nicotinic acetylcholine receptors (nAChRs), saturation” value is listed as “around 90%”.
